Assay results reported in patent US6410585B1, “Inhibitors of protein tyrosine phosphatase” (priority 1997, dated 2002).
Where “and” joins values, the source holds several entries; their conditions need not be identical. Equal entries are not always repeated.

Legend:
[1] = target: T1, rat PTP1 (Rattus norvegicus, UniProt P20417); test: PTP1 assay, pNPP hydrolysis (rate of change in A405); format: biochemical; conditions: for Ki: calculated from IC50-values obtained from a dose-response curve using the inhibition assay; for inhibition at 1 µM: Conc 1 uM; for inhibition at 1 µM / inhibition at 10 µM / inhibition at 100 µM: pNPP hydrolysis, Table 2, read-out: PTP1 Inhib PTP1N. % Inhib; for inhibition at 10 µM: Conc 10 uM; for inhibition at 100 µM: Conc 100 uM
T1 construct: a C-terminal truncation of rat PTP1 (amino acid residues 1-322); GST (N, cleaved yes); made in house; host or cells: E. coli strain TG-1 (pGEX-2T)
T1 sequence (P20417 1-322): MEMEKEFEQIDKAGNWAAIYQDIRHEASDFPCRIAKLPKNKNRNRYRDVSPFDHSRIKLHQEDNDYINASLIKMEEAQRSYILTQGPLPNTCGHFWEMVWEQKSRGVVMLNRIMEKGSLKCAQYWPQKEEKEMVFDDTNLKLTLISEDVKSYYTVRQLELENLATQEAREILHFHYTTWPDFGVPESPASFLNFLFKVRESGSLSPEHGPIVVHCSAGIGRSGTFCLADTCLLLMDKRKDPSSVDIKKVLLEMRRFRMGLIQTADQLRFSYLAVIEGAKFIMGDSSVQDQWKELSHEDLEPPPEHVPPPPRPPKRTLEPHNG
In short: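 Thrombin-cleaved rat PTP1 residues 1-322 (35 ng/ml) with 1 mM pNPP in 50 mM Hepes pH 7.2, NaCl, EDTA, DTT, BSA at room temperature. A405 rate followed 60 min. Compounds added as 10 mM solutions; percent inhibition relative to plate DMSO controls, 1 mM orthovanadate as full-inhibition control.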

[2] = target: T2, human PTP1B (Homo sapiens, UniProt P18031); test: PTP1B assay, pNPP hydrolysis, assayed exactly as for PTP1; format: biochemical; conditions: for inhibition at 1 µM: Conc 1 uM; for inhibition at 1 µM / inhibition at 10 µM / inhibition at 100 µM: Table 2, read-out: PTP1B Inhib PTP1B. % Inhib; for PTP1B Inhib PTP1B. % Inhib: Table 2
T2 construct: human PTP1B (amino acid residues 1-321); made in house; host or cells: E. coli BL21(DE3)
T2 sequence (P18031 1-321): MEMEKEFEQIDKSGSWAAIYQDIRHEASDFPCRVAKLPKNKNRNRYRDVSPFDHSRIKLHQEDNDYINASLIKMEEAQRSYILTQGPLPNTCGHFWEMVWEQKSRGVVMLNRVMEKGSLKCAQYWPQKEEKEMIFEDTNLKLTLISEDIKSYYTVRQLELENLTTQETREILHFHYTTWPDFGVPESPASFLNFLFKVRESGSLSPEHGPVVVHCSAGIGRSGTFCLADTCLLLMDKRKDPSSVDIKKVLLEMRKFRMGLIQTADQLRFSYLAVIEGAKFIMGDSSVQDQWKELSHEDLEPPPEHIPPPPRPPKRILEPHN
Excerpt: The equivalent construct of human PTP1B (amino acid residues 1-321) (cloned from a human placental library), without the GST tag and thrombin cleavage site, was inserted into a pMB replicon and transformed into E. coli BL21(DE3), a strain containing a chromosomal copy of the gene for T7 RNA polymerase under control of a lacUV5 promoter. Expression of PTP1B was induced with isopropyl thiogalactose and the soluble protein was purified by ion exchange, hydrophobic interaction and gel exclusion chromatography for use in the assay to identify PTP inhibitors.
PTP1 activity is measured using either p-nitrophenol phosphate (pNPP) or a triphosphopeptide (that matches residues 1142 through 1153 of the β-subunit and the insulin receptor) as substrate in a 96-well microtiter plate format. An assay pH of 7.2 is used for standard assays (measured 405=9800 at pH 7.2).
Human PTP1B, which is highly homologous to rat PTP1, was assayed exactly as described above for PTP1.
Standard assays are conducted at room temperature in a total volume of 0.2 ml that contains Hepes buffer (50 mM, pH 7.2), NaCl (50 mM), EDTA (1 mM), DTT (1 mM), bovine serum albumin (1 mg/ml), pNPP (1 mM) and PTP1 (35 ng/ml). Compounds (2 μl of 10 mM solutions) are pipetted into wells of microtiter plates followed by 198 μl of premixed reaction mix (with PTP1 and pNPP added immediately before use). The rate of change in A405 is recorded for 60 min. Two wells on each plate contain DMSO controls and two wells contain sodium orthovanadate (1 mM) which inhibits PTP1-catalyzed hydrolysis of pNPP completely. Data are expressed as percent inhibition relative to the average of the DMSO controls measured on the same microtiter plate.

Ki [1] [µM] | melting point [°C] | inhibition at 1 µM [1] [%] | inhibition at 10 µM [1] [%] | inhibition at 100 µM [1] [%] | inhibition at 1 µM [2] [%] | inhibition at 10 µM ([2]; Conc 10 uM) [%] | inhibition at 100 µM ([2]; Conc 100 uM) [%] | Structure (SMILES) | other results
30 | 146 to 148 | – | – | – | – | – | – | CCCCCNC(=O)[C@@H](Cc1ccc(OCC(=O)O)c(C(=O)O)c1)NC(=O)Cc1ccccc1OC [Example 153, 2-(carboxymethoxy)-5-[(2R)-2-{[2-(2-methoxyphenyl)acetyl]amino}-3-oxo-3-(pentylamino)propyl]benzoic Acid] | –
46 | 230 to 233 | – | – | – | – | – | – | O=C(O)COc1ccc(C[C@H](NC(=O)c2ccoc2)C(=O)NCCCCc2ccccc2)cc1-c1nn[nH]n1 [Example 147, 2-[4-{(2S)-2-(3-furoylamino)-3-oxo-3-[(4-phenylbutyl)amino]-propyl}-2-(2H-1,2,3,4-tetrazol-5-yl)phenoxy]acetic Acid] | –
20 | 223 to 225 | – | – | – | – | – | – | O=C(O)COc1ccc(C[C@H](NC(=O)c2ccccc2)C(=O)NCCCCc2ccccc2)cc1-c1nn[nH]n1 [Example 146, 2-[4-{(2S)-2-(benzoylamino)-3-oxo-3-[(4-phenylbutyl)amino]-propyl}-2-(2H-1,2,3,4-tetrazol-5-yl)phenoxy]acetic Acid] | –
– | – | 37 | 84 | 97 | 45 | 87 | 99 | CCCCCNC(=O)C(Cc1ccc(OC(COO)COO)cc1)NC(=O)C(Cc1ccccc1)NC(=O)CCC(=O)O (stereo not shown) | –
– | – | 8 | 55 | 96 | 14 | 63 | 97 | CCCCCNC(=O)C(Cc1ccc(OC(COO)C(=O)O)cc1)NC(=O)NC(Cc1ccc(OCc2ccccc2)cc1)C(=O)O (stereo not shown) | –
– | – | 0 | 22 | 76 | 7 | 36 | 83 | CCCCCNC(=O)C(Cc1ccc(OC(COO)COO)cc1)NC(=O)C(C)NC(=O)OC(C)(C)C (stereo not shown) | –
– | 96 to 97 | – | – | – | – | – | – | CCCCCNC(=O)[C@H](Cc1ccc(OCC(=O)O)c(C(=O)O)c1)NC(=O)[C@@H](Cc1ccccc1)N1CCCC1=O [Example 143, 2-(carboxymethoxy)-5-[(2S)-3-oxo-2-{[(2R)-2-(2-oxo-1-pyrrolidinyl)-3-phenylpropanoyl]amino}-3-(pentylamino)propyl]benzoic Acid] | –
– | – | 40 | 84 | 97 | – | – | – | CCCCCNC(=O)C(Cc1ccc(OCCOO)c(COO)c1)NC(=O)C(Cc1ccccc1)NC(=O)OC(C)(C)C (stereo not shown) [drawing 162] | PTP1B Inhib PTP1B. % Inhib ([2]; Conc 10 uM): 78% and 54% and 43%; PTP1B Inhib PTP1B. % Inhib ([2]; Conc 100 uM): 97% and 89% and 87%

Structure (SMILES) | Ki [1] [µM] | melting point [°C] | inhibition at 1 µM [1] [%] | inhibition at 10 µM [1] [%] | inhibition at 100 µM [1] [%] | inhibition at 1 µM [2] [%] | inhibition at 10 µM ([2]; Conc 10 uM) [%] | inhibition at 100 µM ([2]; Conc 100 uM) [%] | other results
CC(C)(C)OC(=O)N[C@@H](Cc1ccccc1)C(=O)N[C@H](CO)Cc1ccc(OCC(=O)O)c(C(=O)O)c1 [Example 138, 5-[(2S)-2-({(2S)-2-[(tert-butoxycarbonyl)amino]-3-phenylpropanoyl}amino)-3-hydroxypropyl]-2-(carboxymethoxy)benzoic Acid] | – | 168.8 to 172.3 | – | – | – | – | – | – | –
